# From PMC9082844 (Journal of Biomedical Science, 2022)
# Where two headings read alike, the source gives them in different places.
# Key:
# C4-2B = assay: MTT assay, C4-2B; assay type: cell-based; details: 72 h, 3 days, read-out: IC50, proliferation
# KDM4B [1] = target: T1, KDM4B (Homo sapiens, UniProt O94953); assay: H3 demethylation with histones as substrate, Western blot, KDM4B; assay type: biochemical; details: 50 μM myricetin (legend also 100 μM inhibitor), 37 °C 30 min
# T1 sequence (O94953 1-1096): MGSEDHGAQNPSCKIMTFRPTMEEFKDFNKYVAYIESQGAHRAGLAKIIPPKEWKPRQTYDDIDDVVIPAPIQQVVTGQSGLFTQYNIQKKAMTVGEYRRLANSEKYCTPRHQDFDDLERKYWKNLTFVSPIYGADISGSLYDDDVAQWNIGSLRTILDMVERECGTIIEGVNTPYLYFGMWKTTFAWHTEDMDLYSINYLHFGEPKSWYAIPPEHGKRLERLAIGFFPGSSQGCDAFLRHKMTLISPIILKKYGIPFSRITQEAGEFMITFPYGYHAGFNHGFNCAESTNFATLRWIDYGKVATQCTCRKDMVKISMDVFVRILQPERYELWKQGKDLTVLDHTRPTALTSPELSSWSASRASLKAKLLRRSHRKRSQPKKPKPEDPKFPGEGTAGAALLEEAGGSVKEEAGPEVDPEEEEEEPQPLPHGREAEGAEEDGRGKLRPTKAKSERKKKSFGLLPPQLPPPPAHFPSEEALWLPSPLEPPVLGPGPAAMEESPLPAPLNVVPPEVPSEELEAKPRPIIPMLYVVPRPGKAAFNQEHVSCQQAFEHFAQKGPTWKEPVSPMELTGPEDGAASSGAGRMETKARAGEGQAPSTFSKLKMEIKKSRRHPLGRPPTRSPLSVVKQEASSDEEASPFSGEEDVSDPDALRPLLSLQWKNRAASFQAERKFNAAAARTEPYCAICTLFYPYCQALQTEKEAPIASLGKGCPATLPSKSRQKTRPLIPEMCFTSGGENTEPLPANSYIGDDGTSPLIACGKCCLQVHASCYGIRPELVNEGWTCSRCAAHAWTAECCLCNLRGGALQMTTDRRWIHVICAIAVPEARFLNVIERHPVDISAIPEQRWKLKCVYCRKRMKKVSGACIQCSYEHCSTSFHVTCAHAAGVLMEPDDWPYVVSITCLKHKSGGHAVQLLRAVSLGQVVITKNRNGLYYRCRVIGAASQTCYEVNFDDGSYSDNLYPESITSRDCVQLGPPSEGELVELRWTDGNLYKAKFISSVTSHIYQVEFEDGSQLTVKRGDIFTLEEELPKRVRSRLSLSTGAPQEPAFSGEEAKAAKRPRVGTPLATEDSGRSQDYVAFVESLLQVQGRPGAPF
# [2] = cited from earlier work
# KDM4B [3] = target: T1, KDM4B; assay: FDH-coupled demethylase assay, KDM4B; assay type: biochemical
# Experimental: All the reagents were stored at -30 °C.
# RWPE-1 = assay: MTT assay, RWPE-1; assay type: cell-based; details: immortalized normal RWPE-1, 3 days
# Experimental: (§1) Cells (3 × 10^3) were seeded in a 96-well plate 1 day before the treatment. Cell proliferation was measured by MTT colorimetric assay according to the manufacturer’s instruction (Roche, Indianapolis, IN, USA).
# (§2) B H3K9me3 and H3K36me3 levels in myricetin-treated C4-2B cells for 2 days. The H3K9me3, H3K36me3, and H3 signals were detected in cell lysates by western blot analysis. M myricetin
# C4-2B cells = assay: Histone methylation levels in treated C4-2B cells, western blot; assay type: cell-based; details: treated 2 days
# Experimental: Total cell lysates were obtained by lysing the cell with buffer [50 mM Tris–HCl pH7.5 (Thermo Fisher Scientific, Waltham, MA, USA), 150 mM NaCl (Honeywell International, Inc., Charlotte, NC, USA), 0.5% Triton X-100 (Sigma-Aldrich), 10% glycerol (Honeywell International, Inc.), 1 mM EDTA (Affymetrix Inc.), and cock-tail protease inhibitors] for 15 min on ice, followed by 10 min of sonication cycle (30 s on, 30 s off) on ice. The level of total histone 3 and trimethylated histone H3K9 was analyzed by western blotting using anti-histone 3 (Cell Signaling, Danvers, MA, USA) and anti-H3K9me3 (Millipore, Burlington, MA, USA).
# as §2
# CWR22Rv1 = assay: MTT assay, CWR22Rv1; assay type: cell-based; details: 3 days
# Experimental: as §1, §2
# LNCaP cells = assay: MTT assay, LNCaP; assay type: cell-based; details: Homo sapiens, 72 h, 3 days, read-out: IC50, cell viability
# Experimental: as §1
# The IC50 value of each drug was determined by treating cells with the drug (0‒160 μM) for three days. For combination evaluation, a twofold serial dilution of each drug and its combination points above and below its IC50 value was used in an array format. Combination index (CI) values were calculated by CompuSyn software. The values of the combination dose–response curve, which represents drug-effect-shift analysis, were normalized to IC50 values of each single molar concentration of drugs (IC50 eq), and the plots were generated by Graphpad Prism 7.
# as §2
# KDM4A = target: T2, KDM4A (Homo sapiens, UniProt O75164); assay: FDH-coupled demethylase assay, KDM4A; assay type: biochemical; details: pyrocatechol analogue; read-out: inhibitory effect
# T2 sequence (O75164 1-1064): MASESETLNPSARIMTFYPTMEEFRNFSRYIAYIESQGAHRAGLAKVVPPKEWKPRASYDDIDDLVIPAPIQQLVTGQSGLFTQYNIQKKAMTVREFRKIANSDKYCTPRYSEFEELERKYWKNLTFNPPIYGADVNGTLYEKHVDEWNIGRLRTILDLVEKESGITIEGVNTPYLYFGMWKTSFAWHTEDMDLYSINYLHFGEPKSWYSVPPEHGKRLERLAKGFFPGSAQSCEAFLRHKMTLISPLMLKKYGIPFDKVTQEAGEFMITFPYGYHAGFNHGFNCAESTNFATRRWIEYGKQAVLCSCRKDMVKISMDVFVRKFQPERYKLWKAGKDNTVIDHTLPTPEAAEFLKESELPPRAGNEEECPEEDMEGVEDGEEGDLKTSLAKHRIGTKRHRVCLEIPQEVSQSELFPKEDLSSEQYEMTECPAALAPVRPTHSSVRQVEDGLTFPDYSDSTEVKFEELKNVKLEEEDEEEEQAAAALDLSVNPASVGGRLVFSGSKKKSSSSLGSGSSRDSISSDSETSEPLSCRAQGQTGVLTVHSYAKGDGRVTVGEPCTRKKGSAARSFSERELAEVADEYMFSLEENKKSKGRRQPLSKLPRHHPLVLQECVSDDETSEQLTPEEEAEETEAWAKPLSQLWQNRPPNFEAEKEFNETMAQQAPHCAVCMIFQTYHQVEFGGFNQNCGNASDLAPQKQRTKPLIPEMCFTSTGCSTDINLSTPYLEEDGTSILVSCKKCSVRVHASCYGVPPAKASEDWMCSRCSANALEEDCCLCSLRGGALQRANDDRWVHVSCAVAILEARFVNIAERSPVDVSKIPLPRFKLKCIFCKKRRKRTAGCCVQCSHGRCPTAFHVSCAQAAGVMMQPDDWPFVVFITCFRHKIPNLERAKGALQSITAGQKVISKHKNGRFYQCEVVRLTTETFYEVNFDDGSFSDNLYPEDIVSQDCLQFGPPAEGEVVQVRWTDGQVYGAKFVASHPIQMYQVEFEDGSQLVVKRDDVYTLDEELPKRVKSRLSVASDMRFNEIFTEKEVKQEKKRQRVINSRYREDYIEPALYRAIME
# LNCaP cell = test system: LNCaP cell; set-up: method as in PMID 24971742; details: cited from earlier work
# JMJD2E/KDM4E = test system: JMJD2E/KDM4E; set-up: method as in PMID 24260783, PMID 21124847; details: in vitro; cited from earlier work
# C4-2B xenografts = assay: C4-2B xenograft; assay type: in vivo, Balb/c nu/nu mice
# Experimental: C4-2B cells (1 × 10^6 cells) were suspended in a culture medium and mixed with Matrigel Matrix (BD, Franklin Lakes, NJ, USA). The mixtures were implanted subcutaneously into six- to eight-week-old male Balb/c nu/nu mice. […] Tumor volumes were measured for up to 3 weeks. The tumor volume was calculated using the formula: length × width × height × 0.52. Statistical analysis was conducted as described below. The animal protocols for mice experiments were approved by National Tsing Hua University Institutional Animal Care and Use Committee (approval number: NTHU-IACUC-10478) and carried out under the institutional guidelines with animal welfare standards.
# Cells were treated with different concentrations of M or PLGA-M for 24 h, followed by MTT assay. B C4-2B cells (1 × 10^6) were implanted subcutaneously in the hindlimb of nude mice. […] Tumor volumes were measured for up to 3 weeks. Tumor volume was calculated using the formula (length × width × height × 0.52). Statistical significance was evaluated using Student’s t-test. C Representative IHC images of Ki67 and CD31 analysis of xenograft tumor sections from mice treated with vehicle, PLGA-M, Enza, or Enza + PLGA-M. D The proportion of Ki67 + cell was rescored in each field (400 ×) for six random fields in each group of IHC images. CD31 positive vessels in each field (100 ×) were scored for six random fields in each group. Significance was calculated using Student’s t-test. *P < 0.05; **P < 0.01; ***P < 0.001
smiles,measurement,setting,value
"O=c1c(O)c(-c2cc(O)c(O)c(O)c2)oc2cc(O)cc(O)c12 [Myricetin, 3,5,7-trihydroxy-2-(3,4,5-trihydroxyphenyl)-4H-chromen-4-one]",IC50,C4-2B,20600 ± 900 nM
same,demethylation of H3K9me3 or H3K36me3 by KDM4B,KDM4B [1],blocked
same,bioavailability through the oral route,[2],poor
same,Ki,"KDM4B [3]; increasing concentrations of H3K9me3 peptide, read-out: Ki, non-competitive with H3K9me3 peptide, KDM4B",1010 nM
same,Ki,"KDM4B [3]; increasing concentrations of α-KG, Lineweaver–Burk, read-out: Ki, competitive with α-KG, KDM4B",530 nM
same,effect on cell growth,RWPE-1,essentially no effect
same,H3K9me3 level vs untreated cells,C4-2B cells,higher level
same,H3K36me3 signal vs untreated cells,C4-2B cells,comparable
same,proliferation,CWR22Rv1,significantly reduced
same,IC50,LNCaP cells,18500 ± 800 nM
"O=C(O)c1ccc(O)c(O)c1 [BPRKD063S0, 3,4-dihydroxybenzoic acid]",IC50,KDM4A,560 nM
O=[N+]([O-])c1cc([N+](=O)[O-])c(/C=C/c2ccc(Cl)c(Cl)c2)cc1/C=C/c1ccc(Cl)c(Cl)c1 [NSC636819],LNCaP cell proliferation,LNCaP cell,strongly inhibits
"O=c1c(O)c(-c2ccc(O)c(O)c2)oc2cc(O)cc(O)c12 [Quercetin, 2-(3,4-dihydroxyphenyl)-3,5,7-trihydroxychromen-4-one]",IC50,KDM4B [3]; FDH-coupled assay,2400 nM
same,KDM4B Relative Activity (%),"KDM4B [3]; FDH-coupled assay, compound concentration not given",5.3%
CN(C)CCCNC(=O)c1ccc(-c2cc(O)c3ncccc3c2)cc1 [ML324],inhibitory activity toward JMJD2E/KDM4E,JMJD2E/KDM4E,submicromolar
CNC(=O)c1ccc(N2C(=S)N(c3ccc(C#N)c(C(F)(F)F)c3)C(=O)C2(C)C)cc1F [enzalutamide],tumor growth vs vehicle at day 13,"C4-2B xenografts; PLGA-M i.p. 20 mg/kg three times a week, Enza oral 12.5 mg/kg five times a week, p = 0.0002",significant impairment of tumor growth
same,CD31 in xenografts (IHC),C4-2B xenografts; vs vehicle group,significantly higher level of CD31 was detected in the vehicle group
same,Ki-67 expression in xenografts (IHC),C4-2B xenografts; vs vehicle group,significantly lower
